For 15 molecules, melting point results are on record in US7408065B2, “P2X7 receptor antagonists and their use” (AstraZeneca AB, priority 2003, dated 2008).

SMILES strings stand for the structures. Counter-ions that a name gives are not always drawn.

With `O=C(NCC1CCCCC1)c1c(Cl)ccc2nc(N3CCC(C(=O)O)CC3)ccc12` (as salt: sodium) [Example 74, 1-[6-Chloro-5-[[(cyclohexylmethyl)amino]carbonyl]-2-quinolinyl]-4-piperidinecarboxylic Acid, Sodium Salt], the melting point (commonly the temperature of the solid-liquid transition) is 320 to 324 °C. `O=C(Nc1c(Cl)ccc2nc(N3CCNCC3)ccc12)C1(C2CCCCC2)CC1` [Example 27, N-[6-Chloro-2-(1-piperazinyl)-5-quinolinyl]-1-cyclohexyl-cyclopropanecarboxamide] returned a melting point of 219 °C. The same measure for `O=C(CC1CCCCC1)Nc1c(Cl)ccc2nc(N3CC[C@H](OCCc4nnn[nH]4)C3)ccc12` [Example 107, N-[6-Chloro-2-[(3S)-3-[2-(1H-tetrazol-5-yl)ethoxy]-1-pyrrolidinyl]-5-quinolinyl]-cyclohexaneacetamide]: 177 to 181 °C. Next, `O=C(NCC1CCCCC1)c1c(Cl)ccc2nc(N3CCNCC3)ccc12` (as salt: hydrochloride): 305 to 306 °C; `O=C(CC1CCCCC1)Nc1c(Cl)ccc2nc(NC[C@@H](O)CO)ccc12` [Example 6, N-[6-Chloro-2-[[(2R)-2,3-dihydroxypropyl]amino]-5-quinolinyl]-cyclohexaneacetamide]: 155 to 159 °C; `O=C(CC1CCCCC1)Nc1c(Cl)ccc2nc(CC3CCNCC3)ccc12` (as salt: hydrochloride): 170 to 175 °C. In turn, `O=C(O)CN1CCN(c2ccc3c(NC(=O)CC4CCCCC4)c(Cl)ccc3n2)CC1` (as salt: salt) returned a melting point of 320 to 326 °C. The molecule `CC1(CC(=O)Nc2c(Cl)ccc3nc(N4CCC(C(=O)O)CC4)ccc23)CCCCC1` [Example 79, 1-[6-Chloro-5-[[(1-methylcyclohexyl)acetyl]amino]-2-quinolinyl]-4-piperidinecarboxylic Acid] showed a melting point of 210 to 212 °C. Next, `O=C(NCCC1CCCCC1)c1c(Cl)ccc2nc(N3CCC(c4nnn[nH]4)CC3)ccc12` [Example 111, 6-Chloro-N-(2-cyclohexylethyl)-2-[4-(1H-tetrazol-5-yl)-1-piperidinyl]-5-quinolinecarboxamide]: 252 to 255 °C; `CN1CCN(c2ccc3c(NC(=O)CC4CCCCC4)c(Cl)ccc3n2)CC1` (as salt: hydrochloride): 270 °C (dec.); `O=C(NCC1CCCCC1)c1c(Cl)ccc2nc(N3CC[C@H](NCCO)C3)ccc12` (as salt: hydrochloride) [Example 50, 6-Chloro-N-(cyclohexylmethyl)-2-[(3S)-3-[(2-hydroxyethyl)amino]-1-pyrrolidinyl]-5-quinolinecarboxamide, Hydrochloride]: 211 to 220 °C. The molecule `CC(C)(C)OC(=O)N(CCO)[C@H]1CCN(c2ccc3c(NC(=O)CC4CCCCC4)c(Cl)ccc3n2)C1` [Example 56, [1-[6-Chlor-5-[(cyclohexylacetyl)amino]-2-quinolinyl]-3-pyrrolidinyl](2-hydroxyethyl)-carbamic Acid 1,1-dimethylethyl Ester] displayed a melting point of 115 to 120 °C. `Cc1ccc2nc(N3CC[C@H](N)C3)ccc2c1C(=O)NCC1CCCCC1` (as salt: acetate) [Example 58, 2-[(3S)-3-Amino-1-pyrrolidinyl]-N-(cyclohexylmethyl)-6-methyl-5-quinolinecarboxamide, Acetate] had a melting point of 154 to 155 °C. For `Cc1ccc2ncccc2c1C(=O)NCC1CCCCC1` [Example 57, N-(Cyclohexylmethyl)-6-methyl-5-quinolinecarboxamide], the melting point is 165 °C. As to `O=C(O)CN1CCN(c2ccc3c(C(=O)NCC4CCCCC4)c(Cl)ccc3n2)CC1` (as salt: acetate) [Example 73, 4-[6-Chloro-5-[[(cyclohexylmethyl)amino]carbonyl]-2-quinolinyl]-1-piperazineacetic acid, Acetate], the melting point was in the range of 185 to 190 °C.
